Measurements from patent US20260217677A1, “ORGANIC COMPOUNDS AS NLRP3 INHIBITORS” (KODIAK SCIENCES, INC., priority 2023, published 2026).
pIC50: −log10 of the molar value.

system: IL-1β release in U937 cells after NLRP3 activation; test: IL-1β release inhibition in U937 cells (MSD V-Plex); settings: Homo sapiens, U-937, read-out: IL-1β IC50, Table 3; PMA-differentiated U937 cells, 1 μg/mL LPS 3 h, compound 30 min, 10 mM nigericin 1 h

pIC50, > 8.30:
Cc1cc(N[C@@H]2CCCN(CCN3CC(O)C(F)C3)C2)nnc1-c1ccc(C(F)(F)F)cc1O (stereo partly drawn) [Compound 5, 4-Fluoro-1-(2-((R)-3-((6-(2-hydroxy-4-(trifluoromethyl)phenyl)-5-methylpyridazin-3-yl)amino)piperidin-1-yl)ethyl)pyrrolidin-3-ol]
Cc1cc(N[C@@H]2CCCN(CC(=O)N3CC[C@@H](O)C3)C2)nnc1-c1ccc(C(F)(F)F)cc1O [Compound 12, 2-((R)-3-((6-(2-Hydroxy-4-(trifluoromethyl)phenyl)-5-methylpyridazin-3-yl)amino)piperidin-1-yl)-1-((R)-3-hydroxypyrrolidin-1-yl)ethan-1-one]
Cc1cc(N[C@@H]2CCCN(C3CCN(C(=O)N4CC(O)C4)CC3)C2)nnc1-c1ccc(C(F)(F)F)cc1O [Example 40, (R)-(3-((6-(2-Hydroxy-4-(trifluoromethyl)phenyl)-5-methylpyridazin-3-yl)amino)-[1,4′-bipiperidin]-1′-yl) (3-hydroxyazetidin-1-yl)methanone]
Cc1cc(N[C@@H]2CCCN(CCC(=O)N3CCC(O)CC3)C2)nnc1-c1ccc(C(F)(F)F)cc1O [Example 46, 3-[(3R)-3-({6-[2-Hydroxy-4-(trifluoromethyl)phenyl]-5-methylpyridazin-3-yl}amino)piperidin-1-yl]-1-(4-hydroxypiperidin-1-yl) propan-1-one]
Cc1cc(N[C@@H]2CCCN(CCOC(=O)N3CCC(O)CC3)C2)nnc1-c1ccc2sccc2c1O [Example 69, (R)-2-(3-((6-(4-Hydroxybenzo[b]thiophen-5-yl)-5-methylpyridazin-3-yl)amino)piperidin-1-yl)ethyl 4-hydroxypiperidine-1-carboxylate]
Cc1cc(N[C@@H]2CCCN(CC3CC4(CC(O)C4)C3)C2)nnc1-c1ccc(C(F)(F)F)cc1O (stereo partly drawn) [Example 62, (R)-6-((3-((6-(2-Hydroxy-4-(trifluoromethyl)phenyl)-5-methylpyridazin-3-yl)amino)piperidin-1-yl)methyl)spiro[3.3]heptan-2-ol]
Cc1c(N[C@@H]2CCCN(CC(=O)N3CCC(O)CC3)C2)nnc(-c2ccc3sccc3c2O)c1C [Example 50, (R)-2-(3-((6-(4-Hydroxybenzo[b]thiophen-5-yl)-4,5-dimethylpyridazin-3-yl)amino)piperidin-1-yl)-1-(4-hydroxypiperidin-1-yl)ethan-1-one]
Cc1cc(N[C@@H]2CCCN(C[C@H]3C[C@@H](O)C3)C2)nnc1-c1ccc2sccc2c1O [Example 51, 5-(6-(((R)-1-(((1s,3S)-3-Hydroxycyclobutyl)methyl)piperidin-3-yl)amino)-4-methylpyridazin-3-yl)benzo[b]thiophen-4-ol]
Cc1c(N[C@@H]2CCCN(C[C@H]3C[C@@H](O)C3)C2)nnc(-c2ccc3sccc3c2O)c1C [Example 73, 5-(6-(((R)-1-(((1s,3S)-3-Hydroxycyclobutyl)methyl)piperidin-3-yl)amino)-4,5-dimethylpyridazin-3-yl)benzo[b]thiophen-4-ol]

pIC50, 6.30 to 7.30:
Cc1cc(N[C@@H]2CCCN(CC(C)(C)C(=O)N3CCC(O)CC3)C2)nnc1-c1ccc(C(F)(F)F)cc1O [Example 47, 3-[(3R)-3-({6-[2-Hydroxy-4-(trifluoromethyl)phenyl]-5-methylpyridazin-3-yl}amino)piperidin-1-yl]-1-(4-hydroxypiperidin-1-yl)-2,2-dimethylpropan-1-one]
Cc1cc(C(F)(F)F)cc(O)c1-c1ccc(N[C@@H]2CCCN(CCN3CCC(O)CC3)C2)nn1 [Compound 6, (R)-1-(2-(3-((6-(2-Hydroxy-6-methyl-4-(trifluoromethyl)phenyl)pyridazin-3-yl)amino)piperidin-1-yl)ethyl)piperidin-4-ol]
Oc1cc(C(F)(F)F)ccc1-c1nnc(N[C@@H]2CCCN(CCN3CCC(O)CC3)C2)c2c1CCC2 [Compound 19, 1-{2-[(3R)-3-({4-[2-Hydroxy-4-(trifluoromethyl)phenyl]-5H,6H,7H-cyclopenta[d]pyridazin-1-yl}amino)piperidin-1-yl]ethyl}piperidin-4-ol]
Cc1c(-c2ccc(C(F)(F)F)cc2O)nnc2c1CCCN2[C@@H]1CCCN(C2CCN([C@H]3C[C@@H](O)C3)CC2)C1 [Example 45, 2-{4-Methyl-8-[(3R)-1′-[(1s,3s)-3-hydroxycyclobutyl]-[1,4′-bipiperidin]-3-yl]-5H,6H,7H-pyrido[2,3-c]pyridazin-3-yl}-5-(trifluoromethyl)phenol]

pIC50, 7.30 to 8.30:
Cc1c(N[C@@H]2CCCN(CC34CC(O)(C3)C4)C2)nnc(-c2ccc(C(F)(F)F)cc2O)c1C [Example 68, (R)-3-((3-((6-(2-Hydroxy-4-(trifluoromethyl)phenyl)-4,5-dimethylpyridazin-3-yl)amino)piperidin-1-yl)methyl) bicyclo[1.1.1]pentan-1-ol]
Cc1cc(N[C@@H]2CCCN(C(=O)C34CC(O)(C3)C4)C2)nnc1-c1ccc(C(F)(F)F)cc1O [Example 63, (R)-(3-((6-(2-Hydroxy-4-(trifluoromethyl)phenyl)-5-methylpyridazin-3-yl)amino)piperidin-1-yl) (3-hydroxybicyclo[1.1.1]pentan-1-yl)methanone]
Cc1cc(N[C@@H]2CCCN(CC(=O)N3CC(O)C3)C2)nnc1-c1ccc(C(F)(F)F)cc1O [Compound 8, (R)-2-(3-((6-(2-Hydroxy-4-(trifluoromethyl)phenyl)-5-methylpyridazin-3-yl)amino)piperidin-1-yl)-1-(3-hydroxyazetidin-1-yl)ethan-1-one]
O=C(CN1CCC[C@@H](Nc2nnc(-c3ccc(C(F)(F)F)cc3O)c3c2COC3)C1)N1CC(O)C1 [Compound 22, (R)-2-(3-((4-(2-Hydroxy-4-(trifluoromethyl)phenyl)-5,7-dihydrofuro[3,4-d]pyridazin-1-yl)amino)piperidin-1-yl)-1-(3-hydroxyazetidin-1-yl)ethan-1-one]
O=C(CN1CCC[C@@H](Nc2nnc(-c3ccc4sccc4c3O)c3c2COC3)C1)N1CCC(O)CC1 [Example 56, (R)-2-(3-((4-(4-Hydroxybenzo[b]thiophen-5-yl)-5,7-dihydrofuro[3,4-d]pyridazin-1-yl)amino)piperidin-1-yl)-1-(4-hydroxypiperidin-1-yl)ethan-1-one]

same assay, conditions: Homo sapiens, U-937, read-out: IL-1β IC50, Table 4; PMA-differentiated U937 cells, 1 μg/mL LPS 3 h, compound 30 min, 10 mM nigericin 1 h

pIC50, 6.30 to 7.30:
Cc1cc(N[C@@H]2CCCN(CC(=O)N3CCC(N)CC3)C2)nnc1-c1ccc(C(F)(F)F)cc1O [Example 83, (R)-1-(4-Aminopiperidin-1-yl)-2-(3-((6-(2-hydroxy-4-(trifluoromethyl)phenyl)-5-methylpyridazin-3-yl)amino)piperidin-1-yl)ethan-1-one]

pIC50, > 8.30:
Oc1cc(C(F)(F)F)ccc1-c1nnc(N[C@@H]2CCCN(C3CNC3)C2)c2c1COC2 [Example 99, (R)-2-(4-((1-(Azetidin-3-yl)piperidin-3-yl)amino)-5,7-dihydrofuro[3,4-d]pyridazin-1-yl)-5-(trifluoromethyl)phenol]

pIC50, 7.30 to 8.30:
Cc1cc(C(F)(F)F)cc(O)c1-c1ccc(N[C@@H]2CCCN(C3CNC3)C2)nn1 [Example 88, (R)-2-(6-((1-(Azetidin-3-yl)piperidin-3-yl)amino)pyridazin-3-yl)-3-methyl-5-(trifluoromethyl)phenol]
Oc1cc(C(F)(F)F)ccc1-c1nnc(N[C@@H]2CCCN(C3CNC3)C2)c2c1CCC2 [Example 80, (R)-2-(4-((1-(Azetidin-3-yl)piperidin-3-yl)amino)-6,7-dihydro-5H-cyclopenta[d]pyridazin-1-yl)-5-(trifluoromethyl)phenol]
Cc1cc(N[C@@H]2CCCN(C(=O)C(F)(F)CN)C2)nnc1-c1ccc(C(F)(F)F)cc1O [Example 96, (R)-3-Amino-2,2-difluoro-1-(3-((6-(2-hydroxy-4-(trifluoromethyl)phenyl)-5-methylpyridazin-3-yl)amino)piperidin-1-yl) propan-1-one]
Cc1cc(N[C@@H]2CCCN([C@H]3C[C@H](N)C3)C2)nnc1-c1ccc(C(F)(F)F)cc1O (relative stereo) [Example 90, 2-(6-(((R)-1-((1r*,3R*)-3-Aminocyclobutyl)piperidin-3-yl)amino)-4-methylpyridazin-3-yl)-5-(trifluoromethyl)phenol]
Cc1cc(N[C@@H]2CCCN(CC(F)(F)CN)C2)nnc1-c1ccc(C(F)(F)F)cc1O [Example 97, (R)-2-(6-((1-(3-Amino-2,2-difluoropropyl)piperidin-3-yl)amino)-4-methylpyridazin-3-yl)-5-(trifluoromethyl)phenol]
Cc1cc(N[C@@H]2CCCN(CC(=O)N3CCNCC3)C2)nnc1-c1ccc(C(F)(F)F)cc1O [Example 103, (R)-2-(3-((6-(2-Hydroxy-4-(trifluoromethyl)phenyl)-5-methylpyridazin-3-yl)amino)piperidin-1-yl)-1-(piperazin-1-yl)ethan-1-one]
Cc1cc(N[C@@H]2CCCN(CC(=O)N3CCC4(CC3)CC(N)C4)C2)nnc1-c1ccc(C(F)(F)F)cc1O [Example 82]
Cc1cc(N[C@@H]2CCCN(CCN3CCNCC3)C2)nnc1-c1ccc(C(F)(F)F)cc1O [Example 104, (R)-2-(4-Methyl-6-((1-(2-(piperazin-1-yl)ethyl)piperidin-3-yl)amino)pyridazin-3-yl)-5-(trifluoromethyl)phenol]
